Laboratory results: ChEMBL document CHEMBL1275486, “Kinetic characterization of VIM-7, a divergent member of the VIM metallo-beta-lactamase family” (Antimicrob Agents Chemother, 2008)

What was measured:
Escherichia coli [1] = assay: Activity of Escherichia coli beta-lactamase VIM-1 by spectrophotometry
Escherichia coli [2] = assay: Ratio of Kcat to Km for Escherichia coli beta-lactamase VIM-1 by spectrophotometry

SMILES	Km (Escherichia coli [1]) [µM]	kcat (Escherichia coli [1]) [s⁻¹]	kcat/Km (Escherichia coli [2]) [M⁻¹ s⁻¹]
CC(=O)OCC1=C(C(=O)O)N2C(=O)[C@@H](NC(=O)Cc3cccs3)[C@H]2SC1	55	280	5.1e+06
CC(C)(O/N=C(\C(=O)N[C@@H]1C(=O)N2C(C(=O)[O-])=C(C[n+]3ccccc3)CS[C@H]12)c1csc(N)n1)C(=O)O	800	60	75000
CC1(C)S[C@@H]2[C@H](NC(=O)C(C(=O)O)c3ccccc3)C(=O)N2[C@H]1C(=O)O (some centres undefined)	75	170	2.3e+06
CC1(C)S[C@@H]2[C@H](NC(=O)Cc3ccccc3)C(=O)N2[C@H]1C(=O)O	840	–	36000
CC1(C)S[C@@H]2[C@H](NC(=O)[C@H](N)c3ccccc3)C(=O)N2[C@H]1C(=O)O	920	35	38000
CC1(C)S[C@@H]2[C@H](NC(=O)[C@H](NC(=O)N3CCNC3=O)c3ccccc3)C(=O)N2[C@H]1C(=O)O	120	1500	1.25e+07
CC1(C)[C@H](C(=O)O)N2C(=O)C[C@H]2S1(=O)=O	200	10	50000
CCN1CCN(C(=O)N[C@@H](C(=O)N[C@@H]2C(=O)N3[C@@H]2SC(C)(C)[C@@H]3C(=O)O)c2ccccc2)C(=O)C1=O	3500	1900	540000
CO/N=C(\C(=O)N[C@@H]1C(=O)N2C(C(=O)O)=C(COC(C)=O)CS[C@H]12)c1csc(N)n1	250	170	680000
CO/N=C(\C(=O)N[C@@H]1C(=O)N2C(C(=O)O)=C(COC(N)=O)CS[C@H]12)c1ccco1	42	325	7.7e+06
